Experimental data: the supplement of paper PMC10307832

Experiments:
Test in all cases: relative viability (nuclei count vs DMSO), 5 days (fraction); higher = more cells survive
NVP-TAE684 + Vorinostat = compound: COc1cc(N2CCC(N3CCN(C)CC3)CC2)ccc1Nc1ncc(Cl)c(Nc2ccccc2S(=O)(=O)C(C)C)n1 [NVP-TAE684] + O=C(CCCCCCC(=O)Nc1ccccc1)NO [Vorinostat] (partner 1 µM)
How it was run: (§1)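 Relative viability is defined as nuclei in treated wells over nuclei in vehicle wells. Duplicate plates were run and medians reported. Lung cancer cell lines in 1536-well plates were dosed by pin tool one day after seeding, with one drug or with a fixed anchor-drug dose plus five library-drug doses (not always all listed) in √10 steps, and nuclei were counted after 5 days.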

Vandetanib + Foretinib = compound: COc1cc2/c(=N/c3ccc(Br)cc3F)nc[nH]c2cc1OCC1CCN(C)CC1 [Vandetanib] + COc1cc2c(Oc3ccc(NC(=O)C4(C(=O)Nc5ccc(F)cc5)CC4)cc3F)ccnc2cc1OCCCN1CCOCC1 [Foretinib] (partner 0.25 µM)
How it was run: as §1

NVP-TAE684 + AZD7762 = compound: COc1cc(N2CCC(N3CCN(C)CC3)CC2)ccc1Nc1ncc(Cl)c(Nc2ccccc2S(=O)(=O)C(C)C)n1 [NVP-TAE684] + NC(=O)Nc1cc(-c2cccc(F)c2)sc1C(=O)N[C@H]1CCCNC1 [AZD7762] (partner 0.2 µM)
How it was run: as §1

NVP-TAE684 + Bortezomib = compound: COc1cc(N2CCC(N3CCN(C)CC3)CC2)ccc1Nc1ncc(Cl)c(Nc2ccccc2S(=O)(=O)C(C)C)n1 [NVP-TAE684] + CC(C)C[C@H](NC(=O)[C@H](Cc1ccccc1)NC(=O)c1cnccn1)B(O)O [Bortezomib] (partner 0.002 µM)
How it was run: as §1

[1] = compound: C1=CC=C2C(=C1)N=C(S2)C(C#N)C3=NC(=NC=C3)NCCC4=CN=CC=C4 + O=C(c1cc(Cc2n[nH]c(=O)c3ccccc23)ccc1F)N1CCN(C(=O)C2CC2)CC1 [Olaparib] (partner 8 µM)
How it was run: as §1

LU99A
relative viability (NVP-TAE684 + Vorinostat; first compound 0.2 µM): 0.51 | relative viability (NVP-TAE684 + Vorinostat; first compound 0.6325 µM): 0.465 | relative viability (NVP-TAE684 + Vorinostat; first compound 2 µM): 0.357 | relative viability (Vandetanib + Foretinib; first compound 0.02 µM): 0.842 | relative viability (Vandetanib + Foretinib; first compound 0.06325 µM): 0.757 | relative viability (Vandetanib + Foretinib; first compound 0.2 µM): 0.878 | relative viability (Vandetanib + Foretinib; first compound 0.6325 µM): 0.783 | relative viability (Vandetanib + Foretinib; first compound 2 µM): 0.823 | relative viability (NVP-TAE684 + AZD7762; first compound 0.2 µM): 0.342 | relative viability (NVP-TAE684 + AZD7762; first compound 0.6325 µM): 0.402 | relative viability (NVP-TAE684 + AZD7762; first compound 2 µM): 0.265 | relative viability (NVP-TAE684 + Bortezomib; first compound 0.2 µM): 1.29 | relative viability (NVP-TAE684 + Bortezomib; first compound 0.6325 µM): 1.1 | relative viability (NVP-TAE684 + Bortezomib; first compound 2 µM): 0.653 | relative viability ([1]; first compound 0.005 µM): 0.247 | relative viability ([1]; first compound 0.01581 µM): 0.272 | relative viability ([1]; first compound 0.1581 µM): 0.265 | relative viability ([1]; first compound 0.5 µM): 0.232

NCI-H650
relative viability (NVP-TAE684 + Vorinostat; first compound 0.2 µM): 0.428 | relative viability (NVP-TAE684 + Vorinostat; first compound 0.6325 µM): 0.298 | relative viability (NVP-TAE684 + Vorinostat; first compound 2 µM): 0.406 | relative viability (Vandetanib + Foretinib; first compound 0.02 µM): 1.04 | relative viability (Vandetanib + Foretinib; first compound 0.06325 µM): 1.03 | relative viability (Vandetanib + Foretinib; first compound 0.6325 µM): 1.02 | relative viability (Vandetanib + Foretinib; first compound 2 µM): 0.98 | relative viability (NVP-TAE684 + AZD7762; first compound 0.2 µM): 1.03 | relative viability (NVP-TAE684 + AZD7762; first compound 0.6325 µM): 0.848 | relative viability (NVP-TAE684 + AZD7762; first compound 2 µM): 0.853 | relative viability (NVP-TAE684 + Bortezomib; first compound 0.2 µM): 0.784 | relative viability (NVP-TAE684 + Bortezomib; first compound 0.6325 µM): 0.562 | relative viability (NVP-TAE684 + Bortezomib; first compound 2 µM): 0.614 | relative viability ([1]; first compound 0.005 µM): 0.412 | relative viability ([1]; first compound 0.01581 µM): 0.369 | relative viability ([1]; first compound 0.05 µM): 0.441 | relative viability ([1]; first compound 0.1581 µM): 0.345 | relative viability ([1]; first compound 0.5 µM): 0.363

LXF-289
relative viability (NVP-TAE684 + Vorinostat; first compound 0.2 µM): 0.671 | relative viability (NVP-TAE684 + Vorinostat; first compound 0.6325 µM): 0.676 | relative viability (NVP-TAE684 + Vorinostat; first compound 2 µM): 0.723 | relative viability (Vandetanib + Foretinib; first compound 0.02 µM): 1.01 | relative viability (Vandetanib + Foretinib; first compound 0.06325 µM): 0.954 | relative viability (Vandetanib + Foretinib; first compound 0.2 µM): 0.978 | relative viability (Vandetanib + Foretinib; first compound 0.6325 µM): 0.968 | relative viability (Vandetanib + Foretinib; first compound 2 µM): 0.937 | relative viability (NVP-TAE684 + AZD7762; first compound 0.2 µM): 0.939 | relative viability (NVP-TAE684 + AZD7762; first compound 0.6325 µM): 1.11 | relative viability (NVP-TAE684 + AZD7762; first compound 2 µM): 1.07 | relative viability (NVP-TAE684 + Bortezomib; first compound 0.2 µM): 1.06 | relative viability (NVP-TAE684 + Bortezomib; first compound 0.6325 µM): 1.03 | relative viability (NVP-TAE684 + Bortezomib; first compound 2 µM): 1.02 | relative viability ([1]; first compound 0.005 µM): 0.966 | relative viability ([1]; first compound 0.01581 µM): 1.13 | relative viability ([1]; first compound 0.05 µM): 1.1 | relative viability ([1]; first compound 0.1581 µM): 1.17 | relative viability ([1]; first compound 0.5 µM): 0.979

CAL-12T
relative viability (NVP-TAE684 + Vorinostat; first compound 0.2 µM): 0.786 | relative viability (NVP-TAE684 + Vorinostat; first compound 0.6325 µM): 0.615 | relative viability (NVP-TAE684 + Vorinostat; first compound 2 µM): 0.245 | relative viability (Vandetanib + Foretinib; first compound 0.02 µM): 1.13 | relative viability (Vandetanib + Foretinib; first compound 0.06325 µM): 1.05 | relative viability (Vandetanib + Foretinib; first compound 0.2 µM): 0.217 | relative viability (Vandetanib + Foretinib; first compound 0.6325 µM): 1.31 | relative viability (Vandetanib + Foretinib; first compound 2 µM): 0.552 | relative viability (NVP-TAE684 + AZD7762; first compound 0.2 µM): 0.741 | relative viability (NVP-TAE684 + AZD7762; first compound 0.6325 µM): 0.492 | relative viability (NVP-TAE684 + AZD7762; first compound 2 µM): 0.418 | relative viability (NVP-TAE684 + Bortezomib; first compound 0.2 µM): 0.974 | relative viability (NVP-TAE684 + Bortezomib; first compound 0.6325 µM): 0.645 | relative viability (NVP-TAE684 + Bortezomib; first compound 2 µM): 0.366 | relative viability ([1]; first compound 0.005 µM): 0.712 | relative viability ([1]; first compound 0.01581 µM): 0.658 | relative viability ([1]; first compound 0.05 µM): 0.739 | relative viability ([1]; first compound 0.1581 µM): 0.866 | relative viability ([1]; first compound 0.5 µM): 0.648

NCI-H1975
relative viability (NVP-TAE684 + Vorinostat; first compound 0.2 µM): 0.694 | relative viability (NVP-TAE684 + Vorinostat; first compound 0.6325 µM): 0.666 | relative viability (NVP-TAE684 + Vorinostat; first compound 2 µM): 0.263 | relative viability (Vandetanib + Foretinib; first compound 0.02 µM): 0.908 | relative viability (Vandetanib + Foretinib; first compound 0.06325 µM): 0.901 | relative viability (Vandetanib + Foretinib; first compound 0.2 µM): 0.136 | relative viability (Vandetanib + Foretinib; first compound 0.6325 µM): 0.842 | relative viability (Vandetanib + Foretinib; first compound 2 µM): 0.912 | relative viability (NVP-TAE684 + AZD7762; first compound 0.2 µM): 0.694 | relative viability (NVP-TAE684 + AZD7762; first compound 0.6325 µM): 0.649 | relative viability (NVP-TAE684 + AZD7762; first compound 2 µM): 0.381 | relative viability (NVP-TAE684 + Bortezomib; first compound 0.2 µM): 0.359 | relative viability (NVP-TAE684 + Bortezomib; first compound 0.6325 µM): 0.362 | relative viability (NVP-TAE684 + Bortezomib; first compound 2 µM): 0.21 | relative viability ([1]; first compound 0.005 µM): 0.658 | relative viability ([1]; first compound 0.01581 µM): 0.866 | relative viability ([1]; first compound 0.05 µM): 0.78 | relative viability ([1]; first compound 0.1581 µM): 0.913 | relative viability ([1]; first compound 0.5 µM): 0.475

NCI-H647
relative viability (NVP-TAE684 + Vorinostat; first compound 0.2 µM): 0.792 | relative viability (NVP-TAE684 + Vorinostat; first compound 0.6325 µM): 0.6 | relative viability (NVP-TAE684 + Vorinostat; first compound 2 µM): 0.174 | relative viability (Vandetanib + Foretinib; first compound 0.02 µM): 1.17 | relative viability (Vandetanib + Foretinib; first compound 0.06325 µM): 1.2 | relative viability (Vandetanib + Foretinib; first compound 0.2 µM): 0.259 | relative viability (Vandetanib + Foretinib; first compound 0.6325 µM): 1.35 | relative viability (Vandetanib + Foretinib; first compound 2 µM): 1.21 | relative viability (NVP-TAE684 + AZD7762; first compound 0.2 µM): 0.41 | relative viability (NVP-TAE684 + AZD7762; first compound 0.6325 µM): 0.408 | relative viability (NVP-TAE684 + AZD7762; first compound 2 µM): 0.201 | relative viability (NVP-TAE684 + Bortezomib; first compound 0.2 µM): 1.38 | relative viability (NVP-TAE684 + Bortezomib; first compound 0.6325 µM): 1.11 | relative viability (NVP-TAE684 + Bortezomib; first compound 2 µM): 0.77 | relative viability ([1]; first compound 0.005 µM): 0.423 | relative viability ([1]; first compound 0.01581 µM): 0.536 | relative viability ([1]; first compound 0.05 µM): 0.583 | relative viability ([1]; first compound 0.1581 µM): 0.572 | relative viability ([1]; first compound 0.5 µM): 0.3

NCI-H322M
relative viability (NVP-TAE684 + Vorinostat; first compound 0.2 µM): 0.858 | relative viability (NVP-TAE684 + Vorinostat; first compound 0.6325 µM): 0.811 | relative viability (NVP-TAE684 + Vorinostat; first compound 2 µM): 0.565 | relative viability (Vandetanib + Foretinib; first compound 0.02 µM): 0.983 | relative viability (Vandetanib + Foretinib; first compound 0.06325 µM): 0.889 | relative viability (Vandetanib + Foretinib; first compound 0.2 µM): 0.959 | relative viability (Vandetanib + Foretinib; first compound 0.6325 µM): 0.841 | relative viability (Vandetanib + Foretinib; first compound 2 µM): 0.674 | relative viability (NVP-TAE684 + AZD7762; first compound 0.2 µM): 0.553 | relative viability (NVP-TAE684 + AZD7762; first compound 0.6325 µM): 0.599 | relative viability (NVP-TAE684 + AZD7762; first compound 2 µM): 0.453 | relative viability (NVP-TAE684 + Bortezomib; first compound 0.2 µM): 1.23 | relative viability (NVP-TAE684 + Bortezomib; first compound 0.6325 µM): 1.16 | relative viability (NVP-TAE684 + Bortezomib; first compound 2 µM): 0.924 | relative viability ([1]; first compound 0.005 µM): 0.755 | relative viability ([1]; first compound 0.01581 µM): 0.746 | relative viability ([1]; first compound 0.05 µM): 0.779 | relative viability ([1]; first compound 0.1581 µM): 0.78 | relative viability ([1]; first compound 0.5 µM): 0.677
